Data from patent publication US20240327401A1, “FUSED RING COMPOUND, PHARMACEUTICAL COMPOSITION, AND APPLICATION THEREOF” (EVOPOINT BIOSCIENCES CO., LTD., priority 2021, published 2024).

Assays:
[1] = test system: ERK phosphorylation in DLD-1 cells; assay: In-cell Western blot assay for ERK phosphorylation in DLD-1 cells; format: cell-based; details: Homo sapiens, p-ERK signal corrected using DMSO and BI-3406, four-parameter fit
Experimental: Efficacy Example 1: In-cell Western Blot Assay for ERK Phosphorylation in DLD-1 Cells
DLD-1 cells (ATCC, CCL-221) were thawed and cultured in a culture medium containing RPMI1640 (Gibco, A10491-01), 10% fetal bovine serum (FBS) (Transgene, FS201-02) and 1% antibiotic P/S (Gibco, 15140-122) for 3 days until the cell viability was good. The cells were inoculated into a 384-well plate and incubated at 37° C. with 5% CO2 overnight. A test compound, a positive control compound, and a negative control were added. The compound was at concentrations of 10000 nM to 1.52 nM (3-fold dilution) and […], for a total of 10 concentrations. The mixture was well mixed and incubated at 37° C. with 5% CO2. The cells were washed twice with PBS (Solarbio, P1010), and then a blocking buffer was added. After 1 h of blocking at room temperature, a primary antibody mixture (phospho-p44/42 MAPK (T202/Y204) Rabbit mAb (CST, […]), GAPDH (D4C6R) Mouse mAb) (CST, 97166S) was added, followed by overnight incubation at 4° C. The cells were washed 3 times with PBST (PBS containing 0.05% Tween-20 (Solarbio, T8220)), and a secondary antibody mixture (goat anti rabbit 800CW (LI-COR, 926-32211), goat anti mouse 680RD (LI-COR, 926-68070)) was added, followed by incubation at room temperature in the dark. The 384-well plate was reversed and centrifuged at 1000 rpm for 1 min, and read on an Odyssey CLx fluorescence imaging system (LI-COR) to obtain fluorescence signal values, which were corrected using DMSO and BI-3406.
[formula] • H=Ave (DMSO) • L=Ave (BI-3406) • SD (H)=STDEV (DMSO) • SD (L)=STDEV (BI-3406)
The IC50 values of the compounds were calculated using a four-parameter fitting algorithm, specifically as follows:
[formula] • X: Log of cpd concentration • Y: Ave (relative pERK) • Top and Bottom: Plateaus in same units as Y • log IC50: same log units as X • HillSlope: Slope factor or Hill slope.

[2] = target: T1, SOS1/KRAS G12C protein binding (Homo sapiens, UniProt Q07889); assay: Inhibition of SOS1/KRAS G12C protein binding (665 nm/615 nm ratio); details: 15 nM KRAS G12C (aa 1-169), 2.5 nM His-SOS1 (aa 564-1049); nonlinear regression
T1 construct: His-SOS1 (aa 564-1049) protein; purchased Pharmaron Beijing Co., Ltd. 20200717 (His-SOS1); 20200707 (KRAS G12C)
T1 sequence (Q07889 564-1049): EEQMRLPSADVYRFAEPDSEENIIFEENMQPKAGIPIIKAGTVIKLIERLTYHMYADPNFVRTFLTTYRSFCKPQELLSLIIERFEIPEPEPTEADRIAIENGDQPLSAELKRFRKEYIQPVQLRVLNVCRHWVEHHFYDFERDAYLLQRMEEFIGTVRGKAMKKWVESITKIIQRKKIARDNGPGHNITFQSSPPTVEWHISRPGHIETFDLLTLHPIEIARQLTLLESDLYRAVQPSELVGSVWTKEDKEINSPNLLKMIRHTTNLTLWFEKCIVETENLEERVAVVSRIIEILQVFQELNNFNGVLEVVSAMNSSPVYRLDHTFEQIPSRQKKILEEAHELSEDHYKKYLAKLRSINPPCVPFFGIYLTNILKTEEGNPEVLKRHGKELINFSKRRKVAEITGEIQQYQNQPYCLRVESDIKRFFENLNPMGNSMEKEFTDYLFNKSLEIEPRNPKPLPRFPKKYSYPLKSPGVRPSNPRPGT
Experimental: Efficacy Example 2: Evaluation of Inhibition of SOS1/KRAS G12C Protein Binding
A test compound was dissolved in 100% DMSO to give a solution at a concentration of 10 mM. 10 μL of the solution was taken and 3-fold diluted with 100% DMSO to prepare test compound solutions with concentrations of 10000 nM to […], for a total of 11 concentrations. The compound solutions at different concentrations were then transferred to a 384-well plate at 0.1 μL/well using a sonic droplet device Echo (Labcyte), and 2 replicate wells were set for each concentration.
A 15 nM KRAS G12C (aa 1-169) protein (Pharmaron Beijing Co., Ltd., 20200707) was transferred to the 384-well reaction plate at 5 μL/well using the sonic droplet device Echo (Labcyte), and then the reaction plate was centrifuged in a centrifuge (Eppendorf, 5810R) at 1000 rpm/min for 1 min.
A 2.5 nM His-SOS1 (aa 564-1049) protein (Pharmaron Beijing Co., Ltd., 20200717) was transferred to the 384-well reaction plate at 5 μL/well using the sonic droplet device Echo (Labcyte), and then the reaction plate was centrifuged in a centrifuge (Eppendorf, 5810R) at 1000 rpm/min for 1 min and incubated at 25° C. for 15 min.
A mixed solution of Antibody 1 (MAb Anti-6his-Tb cryptate Gold, Cisbio, 61HI2TLA) and Antibody 2 (MAb Anti-GST-XL665, Cisbio, 61GSTXLA) was transferred to the 384-well reaction plate at 10 μL/well using the sonic droplet device Echo (Labcyte), and then the reaction plate was centrifuged in a centrifuge (Eppendorf, 5810R) at 1000 rpm/min for 1 min and incubated at 25° C. for 120 min.
The 665 nm/615 nm optical density ratio was read using an Envision multifunctional microplate reader (Perkin Elmer, Envision 2104).
Analysis of Original Data:
The IC50 values of the compounds were fitted by a nonlinear regression equation of Graphpad Prism 8. The results are shown in Table 2: • Negative control: DMSO
The IC50 (half maximal inhibitory concentration) values of the compounds were calculated using the following non-linear fitting equation:
[formula] • X: Log of cpd concentration • Y: 665 nm/615 nm ratio

Row | SMILES | IC50 [1] | IC50 [2]
1 | COc1c(=O)n(C2(C(F)F)CC2)cc2c(N[C@H](C)c3cccc(C(F)(F)F)c3F)nc(C)nc12 [SZ-022349] | 193 nM | 7.23 nM
2 | COc1c(=O)n(C2(C(F)F)CC2)cc2c(N[C@H](C)c3cccc(C(C)(F)F)c3)nc(C)nc12 [SZ-022350] | 211 nM | 16.7 nM
3 | Cc1nc(N[C@H](C)c2cccc(C(F)F)c2F)c2cn(C3(C(F)F)CC3)c(=O)c(O[C@H]3CCOC3)c2n1 [SZ-022351] | 555 nM | 21.4 nM
4 | Cc1nc(N[C@H](C)c2cccc(C(F)F)c2F)c2cn(C3(C(F)F)CC3)c(=O)c(OCCO)c2n1 [SZ-022352] | 516 nM | 16 nM
5 | Cc1nc(N[C@H](C)c2cccc(C(F)F)c2F)c2cn(C3(C(F)F)CC3)c(=O)c(O[C@@H]3CCOC3)c2n1 [SZ-022353] | 377 nM | 17.5 nM
6 | [2H]C([2H])([2H])Oc1c(=O)n(C2(C(F)(F)F)CC2)cc2c(N[C@H](C)c3cccc(C(F)F)c3F)nc(C)nc12 [SZ-022354] | 138 nM | 21.8 nM
7 | [2H]C([2H])([2H])Oc1c(=O)n(C2(C(F)F)CC2)cc2c(N[C@H](C)c3cccc(C(C)(F)F)c3F)nc(C)nc12 [SZ-022355] | 112 nM | 2.47 nM
8 | COc1c(=O)n(C2(C)CC2)cc2c(N[C@H](C)c3cccc(C(C)(F)F)c3F)nc(C)nc12 [SZ-022356] | 218 nM | 4.36 nM
9 | COc1c(=O)n(C2(CF)CC2)cc2c(N[C@H](C)c3cccc(C(C)(F)F)c3F)nc(C)nc12 [SZ-022357] | 165 nM | 3.68 nM
10 | COc1c(=O)n(C2(C(F)(F)F)CC2)cc2c(N[C@H](C)c3cccc(C(C)(F)F)c3F)nc(C)nc12 [SZ-022358] | 222 nM | 4.79 nM
11 | CCOc1c(=O)n(C2(C)CC2)cc2c(N[C@H](C)c3cccc(C(C)(F)F)c3F)nc(C)nc12 [SZ-022359] | 231 nM | 8.57 nM
12 | CCOc1c(=O)n(C2(C(F)(F)F)CC2)cc2c(N[C@H](C)c3cccc(C(C)(F)F)c3F)nc(C)nc12 [SZ-022360] | 221 nM | 9.46 nM
13 | CCOc1c(=O)n(C2(CF)CC2)cc2c(N[C@H](C)c3cccc(C(C)(F)F)c3F)nc(C)nc12 [SZ-022361] | 164 nM | 4.62 nM
14 | CCOc1c(=O)n(C2(C(F)(F)F)CC2)cc2c(N[C@H](C)c3cccc(C(F)F)c3F)nc(C)nc12 [SZ-022362] | 77 nM | 12.4 nM
15 | CCOc1c(=O)n(C2(CF)CC2)cc2c(N[C@H](C)c3cccc(C(F)F)c3F)nc(C)nc12 [SZ-022363] | 171 nM | 7.36 nM
16 | CCOc1c(=O)n(C2(C)CC2)cc2c(N[C@H](C)c3cccc(C(F)F)c3F)nc(C)nc12 [SZ-022364] | 303 nM | 22.2 nM
17 | Cc1nc(N[C@H](C)c2cccc(C(F)F)c2F)c2cn(C3(C(F)F)CC3)c(=O)c(OCC(F)F)c2n1 [SZ-022368] | 249 nM | 23.5 nM
18 | Cc1nc(N[C@H](C)c2cccc(C(F)(F)F)c2C)c2cn(C3(C)CC3)c(=O)c(S(C)(=O)=O)c2n1 [SZ-022371] | 274 nM | 21.8 nM
19 | COc1c(=O)n(C2(C(F)F)CC2)cc2c(N[C@H](C)c3ccc(-c4ccccc4CN(C)C)s3)nc(C)nc12 [SZ-022373] | 42 nM | 1.4 nM
20 | COc1c(=O)n(C2(C(F)F)CC2)cc2c(N[C@H](C)c3cccc(C#N)c3C)nc(C)nc12 [SZ-022381] | 741 nM | 12.3 nM
21 | [2H]C([2H])([2H])Oc1c(=O)n(C2(C(F)F)CC2)cc2c(N[C@H](C)c3cccc(C#N)c3C)nc(C)nc12 [SZ-022382] | 729 nM | 8.86 nM
22 | COc1c(=O)n(C2(C(F)(F)F)CC2)cc2c(N[C@H](C)c3cccc(C#N)c3C)nc(C)nc12 [SZ-022383] | 985 nM | 18.4 nM
23 | [2H]C([2H])([2H])Oc1c(=O)n(C2(C(F)(F)F)CC2)cc2c(N[C@H](C)c3cccc(C#N)c3C)nc(C)nc12 [SZ-022384] | 884 nM | 15.4 nM
